Active and inactive are the calls of the source. No cut-off for these calls is given here.
Key:
Homo sapiens = species: Homo sapiens; experiment: Ratio of EC50 for activation of human GIRK1/4 expressed in HEK293 cells co-expressing rat mGlu8 by thallium flux assay to EC50 for Activation of human GIRK1/2 expressed in HEK293 cells co-expressing rat mGlu8 by thallium flux assay; type: cell-based
[1] = target: T1, Kir3.1/Kir3.2 (Homo sapiens) (UniProt P48549+P48051); experiment: Activation of human GIRK1/2 expressed in HEK293 cells co-expressing rat mGlu8 by thallium flux assay relative to control; type: cell-based
[2] = target: Kir3.1/Kir3.4 (Homo sapiens) (UniProt P48549+P48544); experiment: Activation of human GIRK1/4 expressed in HEK293 cells co-expressing rat mGlu8 by thallium flux assay relative to control; type: cell-based
[3] = Stability in mouse plasma; type: ADME, cell-free
[4] = Clearance in human liver microsomes
Kir3.1/Kir3.4 [5] = target: T2, Kir3.1/Kir3.4 (Homo sapiens, UniProt P48544+P48549); experiment: (§1) Activation of human GIRK1/4 expressed in HEK293 cells co-expressing rat mGlu8 by thallium flux assay; type: cell-based
T2 sequence (P48549 whole entry): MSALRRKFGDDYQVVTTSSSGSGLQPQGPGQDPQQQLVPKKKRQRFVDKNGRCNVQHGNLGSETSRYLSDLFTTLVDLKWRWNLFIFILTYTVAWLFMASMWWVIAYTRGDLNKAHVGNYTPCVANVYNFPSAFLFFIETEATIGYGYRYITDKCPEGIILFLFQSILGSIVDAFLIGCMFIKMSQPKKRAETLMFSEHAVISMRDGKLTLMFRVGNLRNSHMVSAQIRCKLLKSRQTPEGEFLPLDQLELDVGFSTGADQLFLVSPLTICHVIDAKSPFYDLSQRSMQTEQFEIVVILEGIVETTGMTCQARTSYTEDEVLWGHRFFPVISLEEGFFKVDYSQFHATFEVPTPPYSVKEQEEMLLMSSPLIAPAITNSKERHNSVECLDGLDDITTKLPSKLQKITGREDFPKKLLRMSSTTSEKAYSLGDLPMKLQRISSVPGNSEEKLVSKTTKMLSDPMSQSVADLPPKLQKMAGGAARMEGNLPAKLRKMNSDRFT
T2 sequence (P48544 whole entry): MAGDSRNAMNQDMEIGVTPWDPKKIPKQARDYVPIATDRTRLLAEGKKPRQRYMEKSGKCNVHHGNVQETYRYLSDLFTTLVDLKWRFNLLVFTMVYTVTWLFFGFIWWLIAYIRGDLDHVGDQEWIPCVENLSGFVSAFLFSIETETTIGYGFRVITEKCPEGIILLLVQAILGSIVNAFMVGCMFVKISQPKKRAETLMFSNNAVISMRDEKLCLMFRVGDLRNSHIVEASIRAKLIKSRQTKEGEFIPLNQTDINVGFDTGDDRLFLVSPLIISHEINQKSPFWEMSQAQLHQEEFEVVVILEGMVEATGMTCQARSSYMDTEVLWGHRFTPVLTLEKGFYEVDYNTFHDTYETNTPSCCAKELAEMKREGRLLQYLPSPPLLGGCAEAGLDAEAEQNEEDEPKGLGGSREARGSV

[6] = Fraction unbound in human plasma; type: ADME, cell-free
[7] = Clearance in mouse liver microsomes
Kir3.1/Kir3.2 [8] = target: T3, Kir3.1/Kir3.2 (Homo sapiens, UniProt P48051+P48549); experiment: (§2) Activation of human GIRK1/2 expressed in HEK293 cells co-expressing rat mGlu8 by thallium flux assay; type: cell-based
T3 sequence (P48549 whole entry): T2 sequence (P48549 whole entry)
T3 sequence (P48051 whole entry): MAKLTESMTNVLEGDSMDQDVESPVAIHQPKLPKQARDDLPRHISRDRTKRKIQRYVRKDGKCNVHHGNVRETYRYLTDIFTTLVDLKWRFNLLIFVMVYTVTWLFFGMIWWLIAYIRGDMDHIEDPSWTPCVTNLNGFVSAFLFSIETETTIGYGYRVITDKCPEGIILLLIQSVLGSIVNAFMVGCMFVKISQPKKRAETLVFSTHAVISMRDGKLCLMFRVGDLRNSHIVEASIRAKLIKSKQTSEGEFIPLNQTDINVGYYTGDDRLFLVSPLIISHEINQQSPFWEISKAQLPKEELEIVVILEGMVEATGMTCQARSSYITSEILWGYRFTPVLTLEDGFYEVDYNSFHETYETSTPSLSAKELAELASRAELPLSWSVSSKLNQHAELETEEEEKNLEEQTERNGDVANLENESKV

[9] = target: T1, Kir3.1/Kir3.2 (Homo sapiens); experiment: as §2; type: cell-based
Kir3.1/Kir3.4 [10] = target: T4, Kir3.1/Kir3.4 (Homo sapiens, UniProt P48549+P48544); experiment: as §1; type: cell-based; details: hek293
T4 sequence (P48549 whole entry): T2 sequence (P48549 whole entry)
T4 sequence (P48544 whole entry): T2 sequence (P48544 whole entry)

Kir3.1/Kir3.2 [11] = target: T5, Kir3.1/Kir3.2 (Homo sapiens, UniProt P48549+P48051); experiment: as §2; type: cell-based; details: hek293
T5 sequence (P48549 whole entry): T2 sequence (P48549 whole entry)
T5 sequence (P48051 whole entry): T3 sequence (P48051 whole entry)

[12] = Extraction ratio in human liver S9 fraction; type: ADME, subcellular; details: read-out: ERH
[13] = Half life in human liver S9 fraction; type: ADME, subcellular

Emax [1]	Emax [2]	Stability [3]	CLhep predicted [4]	EC50 (Kir3.1/Kir3.4 [5])	Fu [6]	CLhep predicted [7]	EC50 (Kir3.1/Kir3.2 [8])	Activity [9]	EC50 (Kir3.1/Kir3.4 [10])	EC50 (Kir3.1/Kir3.2 [11])	hepatic extraction ratio [12]	t1/2 [13]	Structure (SMILES)	Ratio EC50 (Homo sapiens)
92%	63%	Unstable	18.9 mL/min/kg	259 nM	1.1%	87 mL/min/kg	96 nM						Cc1cc(NC(=O)Cn2nnc(-c3ccccc3)n2)n(C2CCCCC2)n1	3
								inactive					Cc1cc(N(C)C(=O)Cn2nnc(-c3ccccc3)n2)n(C2CCCCC2)n1	
96%	80%	Unstable	17.8 mL/min/kg		1%	87.1 mL/min/kg							Cc1cc(NC(=O)Cn2nnc(-c3cccc(F)c3)n2)n(C2CCCCC2)n1	3 to 5
89%	66%			662 nM			300 nM						Cc1cc(NC(=O)Cn2nnc(-c3cccc(Cl)c3)n2)n(C2CCCCC2)n1	3 to 5
inactive	inactive								Not Active	Not Active			O=C(Cn1nnc(-c2ccccc2)n1)Nc1cc(C2(C(F)(F)F)CC2)nn1C1CCCCC1	
93%	75%	Unstable		2170 nM	3.7%		1030 nM				< 0.05	10.79 h	Cc1cc(NC(=O)Cn2nnc(-c3ccccc3)n2)n(C2CCS(=O)(=O)C2)n1 (centres undefined)	
77%	58%	Unstable	20.4 mL/min/kg	283 nM	0.3%	88.7 mL/min/kg	176 nM						Cc1cc(NC(=O)Cn2nnc(-c3ccccc3)n2)n(CC2CCCCC2)n1	

Second part, the compound before the results:

Structure (SMILES)	Emax [1]	Emax [2]	Stability [3]	CLhep predicted [4]	EC50 (Kir3.1/Kir3.4 [5])	Fu [6]	CLhep predicted [7]	EC50 (Kir3.1/Kir3.2 [8])	Activity [9]	EC50 (Kir3.1/Kir3.4 [10])	EC50 (Kir3.1/Kir3.2 [11])	hepatic extraction ratio [12]	t1/2 [13]	Ratio EC50 (Homo sapiens)
Cc1nc(-c2ccccc2)c(NC(=O)Cn2nnc(-c3ccccc3)n2)s1	inactive	inactive								Not Active	Not Active			
Cc1cc(NC(=O)Cn2nnc(-c3ccc(Cl)c(Cl)c3)n2)n(C2CCCCC2)n1	84%	70%	Unstable	17.4 mL/min/kg	2200 nM	< 0.3%	76 mL/min/kg	1220 nM						3 to 5
Cc1cc(NC(=O)Cn2nnc(-c3ccc(F)c(F)c3)n2)n(C2CCCCC2)n1	93%	79%			392 nM			116 nM						3 to 5
O=C(Cn1nnc(-c2ccccc2)n1)Nc1ccccn1	inactive	inactive								Not Active	Not Active			
Cc1cc(NC(=O)Cn2nncc2-c2ccccc2)n(C2CCCCC2)n1	87%	49%	Unstable	18.3 mL/min/kg	1030 nM	0.4%	87.7 mL/min/kg	375 nM						
Cc1nc(NC(=O)Cn2nnc(-c3ccccc3)n2)n(-c2ccccc2)n1	inactive	inactive								Not Active	Not Active			
Cc1cc(NC(=O)Cn2cc(-c3ccccc3)nn2)n(C2CCCCC2)n1	87%	76%	Unstable	14.6 mL/min/kg	412 nM	3%	78.2 mL/min/kg	116 nM						
